Values of other authors in patent publication US5942536A, “N-[2-substituted-3-(2-aminoethyl)-1H-indol-5-YL]-Amides: new 5-HT1F agonists” (Eli Lilly and Company, priority 1998, dated 1999).

Assays:
5-HT1F receptor = biological target: T1, 5-HT1F receptor (Homo sapiens, UniProt P30939); conditions: literature (Weinshank); reference for Emax
T1 sequence (P30939 1-366): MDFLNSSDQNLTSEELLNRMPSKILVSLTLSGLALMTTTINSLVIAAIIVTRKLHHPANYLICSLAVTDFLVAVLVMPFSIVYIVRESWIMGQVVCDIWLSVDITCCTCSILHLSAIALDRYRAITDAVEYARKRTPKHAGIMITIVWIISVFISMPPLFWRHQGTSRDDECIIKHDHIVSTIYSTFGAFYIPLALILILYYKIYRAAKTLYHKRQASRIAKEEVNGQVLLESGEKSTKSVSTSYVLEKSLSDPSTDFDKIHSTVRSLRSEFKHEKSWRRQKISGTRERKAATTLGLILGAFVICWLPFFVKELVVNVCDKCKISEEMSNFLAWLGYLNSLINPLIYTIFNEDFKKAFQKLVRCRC

[1] = system: cephalic vascular smooth muscle; conditions: literature (Humphrey, et al.)
neurogenic inflammation = conditions: literature (Moskowitz)
[2] = literature (Humphrey, et al.)

Row | effect on forskolin stimulated cAMP production (5-HT1F receptor) | Compound | contraction of cephalic vascular smooth muscle [1] | block of neurogenic inflammation (neurogenic inflammation) | effective in the treatment of migraine [2]
1 | maximal effect | NCCc1c[nH]c2ccc(O)cc12 [serotonin] | – | – | –
2 | – | CNS(=O)(=O)Cc1ccc2[nH]cc(CCN(C)C)c2c1 [sumatriptan] | contract cephalic vascular smooth muscle | blocked | effective in the treatment of migraine
